Consider 54 compounds from patent US20090270371A1, “QUINOLINE DERIVATIVES USEFUL IN THE TREATMENT OF MGLUR5 RECEPTOR-MEDIATED DISORDERS” (priority 2005, published 2009).

Usually pKi stands for −log10 of the Ki, conventionally taken in molar units.

Structures are written as SMILES. pKi: −log10 of the molar value.

T1 sequence (P31424 21-1203): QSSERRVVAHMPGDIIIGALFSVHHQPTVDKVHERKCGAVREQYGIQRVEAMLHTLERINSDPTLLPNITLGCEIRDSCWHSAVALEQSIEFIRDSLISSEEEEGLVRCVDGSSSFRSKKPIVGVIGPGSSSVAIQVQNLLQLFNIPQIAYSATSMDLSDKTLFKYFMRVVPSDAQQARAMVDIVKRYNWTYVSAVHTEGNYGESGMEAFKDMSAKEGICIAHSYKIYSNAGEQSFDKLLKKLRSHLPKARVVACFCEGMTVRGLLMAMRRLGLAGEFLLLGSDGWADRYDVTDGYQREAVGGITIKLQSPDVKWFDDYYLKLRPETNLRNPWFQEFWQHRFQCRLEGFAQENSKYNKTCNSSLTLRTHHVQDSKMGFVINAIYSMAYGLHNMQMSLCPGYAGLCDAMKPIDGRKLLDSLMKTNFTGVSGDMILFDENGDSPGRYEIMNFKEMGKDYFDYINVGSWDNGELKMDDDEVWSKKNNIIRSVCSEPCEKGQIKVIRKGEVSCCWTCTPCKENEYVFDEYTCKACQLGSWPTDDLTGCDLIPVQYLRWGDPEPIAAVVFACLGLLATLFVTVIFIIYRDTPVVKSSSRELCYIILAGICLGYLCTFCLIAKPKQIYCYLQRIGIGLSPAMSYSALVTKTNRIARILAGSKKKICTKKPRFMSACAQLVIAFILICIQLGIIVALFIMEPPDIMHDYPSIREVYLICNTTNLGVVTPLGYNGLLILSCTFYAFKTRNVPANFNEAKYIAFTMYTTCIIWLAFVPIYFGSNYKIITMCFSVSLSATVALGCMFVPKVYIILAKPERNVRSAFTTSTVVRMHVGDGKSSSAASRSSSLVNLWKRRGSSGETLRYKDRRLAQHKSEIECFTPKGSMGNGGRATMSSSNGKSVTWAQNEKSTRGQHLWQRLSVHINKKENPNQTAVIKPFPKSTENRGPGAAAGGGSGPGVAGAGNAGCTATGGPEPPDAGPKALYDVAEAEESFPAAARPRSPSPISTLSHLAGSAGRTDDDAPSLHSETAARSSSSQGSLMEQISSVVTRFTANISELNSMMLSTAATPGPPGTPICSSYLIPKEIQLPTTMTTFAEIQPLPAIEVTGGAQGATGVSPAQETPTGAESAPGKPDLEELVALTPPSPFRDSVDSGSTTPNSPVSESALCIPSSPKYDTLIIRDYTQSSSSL

This assay has as its target T1, rat mGluR5 receptors (Rattus norvegicus, UniProt P31424).
T1 construct: rat cerebro-cortical membrane preparation was used; from tissue; host or cells: rat cerebral cortex membranes
Put plainly: mGluR5 receptor binding test, rat cerebro-cortical membrane preparation, [3H]-M-MPEP. Conditions: affinity for rat mGluR5 receptors; [3H]-M-MPEP (2 nM) radioligand. An outline of the steps:
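Radioligand binding used rat cerebro-cortical membranes with 2 nM [3H]-M-MPEP. Nonspecific binding was defined with 10 μM M-MPEP. The method follows a modification of a published procedure.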
`CC1CCN(c2c(S(=O)(=O)c3cccc(Cl)c3)cnc3ccc(Cl)cc23)CC1` [Compound 216] gave a pKi of less than 6.30.

In turn, `O=S(=O)(c1ccccc1)c1cnc2ccc(F)cc2c1N1CCN(Cc2ccccc2)CC1` [Compound 13] gave a pKi of less than 6.30.

`O=S(=O)(c1ccc(Cl)cc1)c1cnc2ccccc2c1N1CCOCC1` [Compound 40] gave a pKi of less than 6.30. The value for `COc1ccc2ncc(S(=O)(=O)c3ccccc3)c(N3CCN(C)CC3)c2c1` [Compound 128] was less than 6.30; that for `CCOc1ccc2ncc(S(=O)(=O)c3ccc(C)cc3)c(N3CCC(C)CC3)c2c1` [Compound 114] was less than 6.30; that for `COc1ccc2ncc(S(=O)(=O)c3ccc(C)c(Cl)c3)c(N3CCC(C)CC3)c2c1` [Compound 248] was more than 6.70. The result for `Cc1cc(C)cc(S(=O)(=O)c2cnc3ccc(F)cc3c2N2CCC(C)CC2)c1` [Compound 151] reads more than 6.70. The result for `COc1ccc2ncc(S(=O)(=O)c3ccc(Cl)cc3)c(N3CCC(C)CC3)c2c1` [Compound 15] reads less than 6.30; that for `COc1ccc2ncc(S(=O)(=O)c3ccc(F)cc3)c(N3CCOCC3)c2c1` [Compound 275], less than 6.30.

In turn, `O=S(=O)(c1ccc(Cl)cc1)c1cnc2cc(Cl)ccc2c1N1CCOCC1` [Compound 324] showed a pKi of 6.30 to 6.70.

In the case of `CC1CCN(c2c(S(=O)(=O)c3cccc(C#N)c3)cnc3ccc(F)cc23)CC1` [Compound 140], the pKi was more than 6.70.

Compound `CCOc1ccc2ncc(S(=O)(=O)c3ccc(C)cc3)c(N3CCCCCC3)c2c1` [Compound 119] had a pKi of less than 6.30. The value for `Cc1ccc(S(=O)(=O)c2cnc3ccccc3c2N2CCN(c3cc(C)ccc3C)CC2)cc1` [Compound 70] was less than 6.30; that for `COc1ccc(S(=O)(=O)c2cnc3cc(Cl)ccc3c2N2CCC(C)CC2)cc1OC` [Compound 196] was more than 6.70. The result for `Cc1ccc(S(=O)(=O)c2cnc3ccc(F)cc3c2N2CCOCC2)cc1Cl` [Compound 288] reads 6.30 to 6.70; that for `N#Cc1cccc(S(=O)(=O)c2cnc3ccc(F)cc3c2N2CCOCC2)c1` [Compound 281], less than 6.30. The value for `CCc1ccc2ncc(S(=O)(=O)c3ccccc3)c(N3CCCCC3)c2c1` [Compound 45] was less than 6.30. In the case of `O=S(=O)(c1ccc(Cl)cc1)c1cnc2c(Cl)ccc(Cl)c2c1N1CCOCC1` [Compound 347], the pKi is 6.30 to 6.70.

The compound `CCOC(=O)C1CCN(c2c(S(=O)(=O)c3ccccc3)cnc3ccc(CC)cc23)CC1` [Compound 81] had a pKi of less than 6.30.

`COc1ccc(S(=O)(=O)c2cnc3ccc(OC)cc3c2N2CCC(C)CC2)cc1` [Compound 88] showed a pKi of less than 6.30. The result for `O=S(=O)(c1ccccc1)c1cnc2cc3c(cc2c1N1CCCC1)OCCO3` [Compound 82] reads less than 6.30; that for `CC1CCN(c2c(S(=O)(=O)c3ccc(Cl)c(Cl)c3)cnc3cc(Cl)ccc23)CC1` [Compound 202], more than 6.70. The value for `CCc1ccc2ncc(S(=O)(=O)c3ccc(C)cc3)c(NCc3ccccc3)c2c1` [Compound 85] was less than 6.30; that for `CC1CCN(c2c(S(=O)(=O)c3ccccc3)cnc3cc(Cl)ccc23)CC1` [Compound 194] was more than 6.70; that for `CCN(CC)c1c(S(=O)(=O)c2ccc(C)cc2)cnc2ccccc12` [Compound 76] was 6.30 to 6.70. The result for `O=S(=O)(c1ccccc1)c1cnc2ccccc2c1N1CCN(Cc2ccccc2)CC1` [Compound 64] reads less than 6.30; that for `COc1ccc2ncc(S(=O)(=O)c3ccc(C)c(C)c3)c(N3CCC(C)CC3)c2c1` [Compound 250], 6.30 to 6.70. Compound `CCOC(=O)C1CCCN(c2c(S(=O)(=O)c3ccc(C)cc3)cnc3ccccc23)C1` (stereo not drawn) [Compound 56] gave a pKi of less than 6.30. The value for `COc1ccc2ncc(S(=O)(=O)c3ccccc3)c(N3CCC(C)CC3)c2c1` [Compound 109] was less than 6.30; that for `O=S(=O)(c1ccc(N2CCCCC2)cc1)c1cnc2ccc(Cl)cc2c1N1CCCCC1` [Compound 8] was less than 6.30. The result for `CC1CCN(c2c(S(=O)(=O)c3ccc(Cl)cc3)cnc3c(Cl)ccc(Cl)c23)CC1` [Compound 253] reads 6.30 to 6.70; that for `CCN1CCN(c2c(S(=O)(=O)c3ccc(C)c(C)c3)cnc3cc4c(cc23)OCO4)CC1` [Compound 19], less than 6.30.

For `Cc1ccc(S(=O)(=O)c2cnc3ccccc3c2N2CCC(C)CC2)cc1` [Compound 2, 3-(4-Methyl-benzenesulfonyl)-4-(4-methyl-piperidin-1-yl)-quinoline], the pKi was more than 6.70. `O=S(=O)(c1ccc(F)c(F)c1)c1cnc2c(F)cccc2c1N1CCOCC1` [Compound 343] showed a negative-log Ki (pKi) of 6.30 to 6.70. The value for `O=S(=O)(c1ccccc1)c1cnc2ccccc2c1N1CCCCCC1` [Compound 89] was 6.30 to 6.70; that for `CCc1ccc2ncc(S(=O)(=O)c3ccc(C)cc3)c(N(CC)CC)c2c1` [Compound 83] was less than 6.30; that for `O=S(=O)(c1ccc(Cl)cc1)c1cnc2c(F)cccc2c1N1CCOCC1` [Compound 339] was 6.30 to 6.70. `CC1CCN(c2c(S(=O)(=O)c3ccc(Cl)c(Cl)c3)cnc3ccc(Cl)cc23)CC1` [Compound 223] gave a pKi of more than 6.70. The result for `COc1cccc(Nc2c(S(=O)(=O)c3ccccc3)cnc3ccc(OC)cc23)c1` [Compound 23] reads less than 6.30. The result for `O=S(=O)(c1ccc(F)c(F)c1)c1cnc2cc(F)ccc2c1N1CCOCC1` [Compound 315] reads 6.30 to 6.70; that for `O=S(=O)(c1cc(Cl)cc(Cl)c1)c1cnc2cc(Cl)ccc2c1N1CCOCC1` [Compound 318], more than 6.70; that for `O=S(=O)(c1ccc(F)c(Cl)c1)c1cnc2c(F)cccc2c1N1CCOCC1` [Compound 344], more than 6.70. The value for `Cc1ccc2ncc(S(=O)(=O)c3ccc(Cl)c(Cl)c3)c(N3CCC(C)CC3)c2c1` [Compound 164] was more than 6.70. `O=S(=O)(c1ccc(Cl)cc1)c1cnc2ccc(Cl)cc2c1N1CCOCC1` [Compound 295] had a pKi of less than 6.30. The value for `COc1cccc(S(=O)(=O)c2cnc3ccc(Cl)cc3c2N2CCOCC2)c1` [Compound 296] was less than 6.30.

Compound `O=S(=O)(c1ccc(Cl)c(Cl)c1)c1cnc2ccc(Cl)cc2c1N1CCOCC1` [Compound 298] showed a negative logarithm of the Ki (pKi) of 6.30 to 6.70. The value for `COc1ccc2ncc(S(=O)(=O)c3ccc(C)cc3)c(N3CCC(C)CC3)c2c1` [Compound 50] was less than 6.30; that for `COc1cccc(S(=O)(=O)c2cnc3ccc(C)cc3c2N2CCC(C)CC2)c1` [Compound 160] was more than 6.70; that for `Cc1ccc(S(=O)(=O)c2cnc3c(F)cccc3c2N2CCOCC2)cc1` [Compound 342] was less than 6.30. The result for `Cc1ccc(S(=O)(=O)c2cnc3c(F)cccc3c2N2CCOCC2)cc1F` [Compound 341] reads 6.30 to 6.70; that for `CC1CCN(c2c(S(=O)(=O)c3cc(F)cc(F)c3)cnc3ccc(F)cc23)CC1` [Compound 139], less than 6.30; that for `O=S(=O)(c1cc(F)cc(F)c1)c1cnc2cc(Cl)ccc2c1N1CCOCC1` [Compound 319], 6.30 to 6.70. In the case of `Cc1ccc(S(=O)(=O)c2cnc3ccccc3c2N2CCN(Cc3ccccc3)CC2)cc1` [Compound 80], the pKi is less than 6.30. Compound `O=S(=O)(c1cccc(F)c1)c1cnc2c(F)cccc2c1N1CCOCC1` [Compound 340] had a pKi of less than 6.30.
